Data on 19 molecules can be found in PubChem BioAssay AID248 (DTP/NCI, 2004).

Several values for one entry are separate records, joined by “and”; a condition that tells them apart may be missing. Equal values may be shown once. Toxic doses and inconclusive results are not listed.

This assay concerns L1210 leukemia ip in BDF1 mice, survival T/C. Kind of assay: NCI In Vivo Anticancer Drug Screen. Data for tumor model L1210 Leukemia (intraperitoneal) in B6D2F1 (BDF1) mice. Particulars: endpoint: mean survival time, higher = longer survival. The method in brief:
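Each compound was tested against a transplantable tumor grown in mice. The endpoint was survival, with treated animals benchmarked against vehicle controls as a simple ratio.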

Where [1] appears, read: dose: 50.0 mg/kg/injection, schedule: Q01DX009 (ip), vehicle: Klucel (hydroxypropylcellulose) (HPC).
Setting [2] is: dose: 100.0 mg/kg/injection, schedule: Q04DX003 (ip), vehicle: saline.
The mark [3] stands for this setting: dose: 100.0 mg/kg/injection, schedule: Q04DX003 (ip), vehicle: saline with Tween-80.
The mark [4] stands for this setting: dose: 200.0 mg/kg/injection, schedule: Q04DX003 (ip), vehicle: saline with Tween-80.
Where [5] appears, read: dose: 400.0 mg/kg/injection, schedule: Q04DX003 (ip), vehicle: saline with Tween-80.
[6] abbreviates: dose: 100.0 mg/kg/injection, schedule: Q01DX001 (ip), vehicle: saline.
Where [7] appears, read: dose: 100.0 mg/kg/injection, schedule: Q01DX009 (ip), vehicle: Klucel (hydroxypropylcellulose) (HPC).
Setting [8] is: dose: 100.0 mg/kg/injection, schedule: Q04DX003 (ip), vehicle: Klucel (hydroxypropylcellulose) (HPC).
Setting [9] is: dose: 200.0 mg/kg/injection, schedule: Q01DX009 (ip), vehicle: Klucel (hydroxypropylcellulose) (HPC).
Setting [10] is: dose: 200.0 mg/kg/injection, schedule: Q04DX003 (ip), vehicle: Klucel (hydroxypropylcellulose) (HPC).
Where [11] appears, read: dose: 400.0 mg/kg/injection, schedule: Q04DX003 (ip), vehicle: Klucel (hydroxypropylcellulose) (HPC).
Where [12] appears, read: dose: 200.0 mg/kg/injection, schedule: Q04DX003 (ip), vehicle: saline.
Where [13] appears, read: dose: 12.5 mg/kg/injection, schedule: Q04DX002 (ip), vehicle: saline with Tween-80.
Setting [14] is: dose: 25.0 mg/kg/injection, schedule: Q04DX002 (ip), vehicle: saline with Tween-80.
The mark [15] stands for this setting: dose: 100.0 mg/kg/injection, schedule: Q01DX001 (ip), vehicle: carboxymethylcellulose (CMC).

With `CCCC(=O)N(C(=O)CCC)c1cc2c3c(c1)CCCN3CCC2`, the T/C (dose: 12.5 mg/kg/injection, schedule: Q04DX003 (ip), vehicle: Klucel (hydroxypropylcellulose) (HPC)) was 96 % of control; the T/C (dose: 25.0 mg/kg/injection, schedule: Q01DX009 (ip), vehicle: Klucel (hydroxypropylcellulose) (HPC)) was 95 % of control; the T/C (dose: 25.0 mg/kg/injection, schedule: Q04DX003 (ip), vehicle: Klucel (hydroxypropylcellulose) (HPC)) was 93 % of control; the T/C under setting [1] was 92 % of control; the T/C (dose: 50.0 mg/kg/injection, schedule: Q04DX003 (ip), vehicle: Klucel (hydroxypropylcellulose) (HPC)) was 95 % of control; the T/C under setting [2] was 93 % of control.
With `O=C(Nc1cccc(C(F)(F)F)c1)Nc1cccc(C(F)(F)F)c1`, the T/C (dose: 100.0 mg/kg/injection, schedule: Q01DX001 (ip), vehicle: Klucel (hydroxypropylcellulose) (HPC)) was 94 % of control and 91 % of control; the T/C under setting [3] was 97 % of control and 87 % of control; the T/C (dose: 200.0 mg/kg/injection, schedule: Q01DX001 (ip), vehicle: Klucel (hydroxypropylcellulose) (HPC)) is 98 % of control; the T/C under setting [4] is 99 % of control and 87 % of control; the T/C (dose: 400.0 mg/kg/injection, schedule: Q01DX001 (ip), vehicle: Klucel (hydroxypropylcellulose) (HPC)) is 94 % of control; the T/C under setting [5] was 97 % of control and 89 % of control.
Consider `Cc1nc2sc3c(c2c(=S)[nH]1)CCCC3`, for which the T/C reads like this: (dose: 100.0 mg/kg/injection, schedule: Q01DX001 (ip), vehicle: saline sonified) 86 % of control; (dose: 200.0 mg/kg/injection, schedule: Q01DX001 (ip), vehicle: saline sonified) 89 % of control; (dose: 400.0 mg/kg/injection, schedule: Q01DX001 (ip), vehicle: saline sonified) 91 % of control.
As to `c1cc[n+](Cc2nc3ccccc3[nH]2)cc1`, under setting [6], the T/C was 102 % of control and 95 % of control.
On to `O=[N+]([O-])c1ccc(N2CCCC2)c([N+](=O)[O-])c1`, for which the T/C was 101 % of control under setting [7]; 95 % of control under setting [8]; 93 % of control under setting [9]; 92 % of control under setting [10]; 97 % of control (dose: 400.0 mg/kg/injection, schedule: Q01DX009 (ip), vehicle: Klucel (hydroxypropylcellulose) (HPC)); 99 % of control under setting [11].
In the case of `Cn1nnc(N)n1`, the T/C reads like this: under setting [6], 98 % of control; under setting [2], 102 % of control; (dose: 200.0 mg/kg/injection, schedule: Q01DX001 (ip), vehicle: saline) 100 % of control; under setting [12], 96 % of control; (dose: 400.0 mg/kg/injection, schedule: Q01DX001 (ip), vehicle: saline) 100 % of control; (dose: 400.0 mg/kg/injection, schedule: Q04DX003 (ip), vehicle: saline) 102 % of control.
On to `Cc1cccc(OCC(O)CN2CCN(c3ccccc3)CC2)c1` (stereo unspecified), for which the T/C reads like this: under setting [1], 104 % of control; under setting [7], 101 % of control; under setting [9], 115 % of control.
For the molecule `CCCCCCCCCCCCCCCCN(C(C)C)S(=O)(=O)c1ccc(Cl)c([N+](=O)[O-])c1`, the T/C (dose: 100.0 mg/kg/injection, schedule: Q01DX009 (ip), vehicle: saline sonified) was 106 % of control; the T/C under setting [8] is 91 % of control; the T/C (dose: 200.0 mg/kg/injection, schedule: Q01DX009 (ip), vehicle: saline sonified) is 96 % of control; the T/C under setting [10] was 94 % of control; the T/C (dose: 400.0 mg/kg/injection, schedule: Q01DX009 (ip), vehicle: saline sonified) is 89 % of control; the T/C under setting [11] is 93 % of control.
Regarding `Cc1cc(C(=O)O)c(CN2C(=O)c3ccccc3C2=O)c(=O)n1C`, the T/C is 105 % of control (dose: 100.0 mg/kg/injection, schedule: Q01DX001 (ip), vehicle: saline with Tween-80); 102 % of control (dose: 100.0 mg/kg/injection, schedule: Q04DX003 (ip), vehicle: water); 100 % of control (dose: 200.0 mg/kg/injection, schedule: Q01DX001 (ip), vehicle: saline with Tween-80); 100 % of control (dose: 200.0 mg/kg/injection, schedule: Q04DX003 (ip), vehicle: water); 100 % of control (dose: 400.0 mg/kg/injection, schedule: Q01DX001 (ip), vehicle: saline with Tween-80); 104 % of control (dose: 400.0 mg/kg/injection, schedule: Q04DX003 (ip), vehicle: water).
`CS(=O)(=O)Oc1cc(=O)oc2ccccc12`: the T/C is, setting by setting: under setting [1], 103 % of control; under setting [7], 109 % of control.
In the case of `c1ccc(CCN2CCOCC2)nc1`, the T/C reads like this: under setting [2], 109 % of control; under setting [12], 96 % of control.
For `CC(C)Cc1ncc(CCCN=C(N)N)[nH]c1=O`, the T/C under setting [13] is 106 % of control; the T/C under setting [14] is 98 % of control; the T/C (dose: 50.0 mg/kg/injection, schedule: Q04DX002 (ip), vehicle: saline with Tween-80) was 95 % of control; the T/C (dose: 100.0 mg/kg/injection, schedule: Q04DX002 (ip), vehicle: saline with Tween-80) was 103 % of control.
Take `O=NN(CCCl)C(=O)Nc1cccc(Cl)c1`: the T/C was 112 % of control (dose: 2.28 mg/kg/injection, schedule: Q01DX001 (ip), vehicle: carboxymethylcellulose (CMC)); 116 % of control (dose: 4.56 mg/kg/injection, schedule: Q01DX001 (ip), vehicle: carboxymethylcellulose (CMC)); 160 % of control under setting [15]; 104 % of control (dose: 125.0 mg/kg/injection, schedule: Q01DX001 (ip), vehicle: carboxymethylcellulose (CMC)); 153 % of control (dose: 150.0 mg/kg/injection, schedule: Q01DX001 (ip), vehicle: carboxymethylcellulose (CMC)); 156 % of control (dose: 175.0 mg/kg/injection, schedule: Q01DX001 (ip), vehicle: carboxymethylcellulose (CMC)).
As for `C[N+](C)(C)C1(Cc2ccc(F)cc2)c2ccccc2-c2ccccc21`, the T/C runs as follows: (dose: 6.25 mg/kg/injection, schedule: Q01DX009 (ip), vehicle: saline with Tween-80) 88 % of control; (dose: 6.25 mg/kg/injection, schedule: Q04DX002 (ip), vehicle: saline with Tween-80) 98 % of control; (dose: 6.25 mg/kg/injection, schedule: Q04DX003 (ip), vehicle: saline with Tween-80) 90 % of control; under setting [13], 115 % of control; (dose: 12.5 mg/kg/injection, schedule: Q04DX003 (ip), vehicle: saline with Tween-80) 90 % of control; (dose: 25.0 mg/kg/injection, schedule: Q01DX009 (ip), vehicle: saline with Tween-80) 88 % of control. In addition, the T/C is 98 % of control under setting [14] and 90 % of control (dose: 25.0 mg/kg/injection, schedule: Q04DX003 (ip), vehicle: saline with Tween-80).
For the molecule `COc1c(CO)c2c(c(OC)c1OC)-c1ccc(OC)c(=O)cc1[C@@H](NC(C)=O)CC2`, the T/C (dose: 33.0 mg/kg/injection, schedule: Q01DX015 (ip), vehicle: saline) is 122 % of control.
In the case of `O=c1[nH]nc(-c2ccncc2)s1`, the T/C is, setting by setting: (dose: 20.0 mg/kg/injection, schedule: Q04DX003 (ip), vehicle: saline) 101 % of control; (dose: 40.0 mg/kg/injection, schedule: Q04DX003 (ip), vehicle: saline) 96 % of control; (dose: 75.0 mg/kg/injection, schedule: Q01DX001 (ip), vehicle: saline) 94 % of control; (dose: 75.0 mg/kg/injection, schedule: Q04DX003 (ip), vehicle: saline) 96 % of control; under setting [2], 98 % of control.
As for `CCOP(=O)(Nc1ccc2c(c1)Cc1cc([N+](=O)[O-])ccc1-2)OCC`, the T/C runs as follows: (dose: 50.0 mg/kg/injection, schedule: Q01DX001 (ip), vehicle: carboxymethylcellulose (CMC)) 97 % of control; under setting [15], 94 % of control; (dose: 200.0 mg/kg/injection, schedule: Q01DX001 (ip), vehicle: carboxymethylcellulose (CMC)) 92 % of control; (dose: 400.0 mg/kg/injection, schedule: Q01DX001 (ip), vehicle: carboxymethylcellulose (CMC)) 94 % of control.
Consider `CNC(=S)N/N=C/c1ccc([N+](=O)[O-])s1`, for which the T/C under setting [3] is 90 % of control, the T/C under setting [4] is 90 % of control and the T/C under setting [5] was 89 % of control.
In the case of `COP(=O)(OC)C(OC(=O)C(C)(C)C)=C(C)C`, the T/C under setting [3] is 98 % of control, the T/C under setting [4] was 110 % of control and the T/C under setting [5] is 93 % of control.
